Measurements from patent US20050043262A1, “Novel specific inhibitor of the cyclin kinase inhibitor p21Waf1/Cip1 and methods of using the inhibitor” (priority 2000, published 2005).

Legend:
[1] = system: MCF7 cells; experiment: Nuclear morphology (Hoechst 33258) in MCF7 cells; format: cell-based, human; conditions: serum stimulated 24 hours after lipofection
Description: Evaluation of Nuclear Morphology: Cells were seeded in 6-well culture dishes and treated with ODNs as described. The cells were then immersed in methanol for at least 10 min. Cells were stained in 1 μg/ml Hoechst 33258 in water with 1% nonfat dry milk. After staining for 8-10 min, the cells were rinsed in water and dried completely. Nuclear morphology was visually evaluated by fluorescence microscopy.
Apoptosis is the end result of an elaborate cascade of molecular events that ultimately result in programmed cell death; thus, a variety of tests are generally used to determine whether apoptosis is occurring. The methods to study apoptosis were employed: (a) assessment of nuclear morphology; (b) PARP cleavage; and (c) caspase-3 cleavage. Serum-starved cells were transfected with antisense p21 ODN or the control ODN, fixed, stained with Hoechst 33258, and examined under UV light. MCF7 and T47D cells were grown to confluence, serum starved for 24 hours, and lipofected with antisense p21 or control ODN. The cells were subsequently serum stimulated for another 24 hours, fixed, stained with Hoechst 33258, and examined under UV light at X400.

[2] = system: caspase-3; experiment: Caspase-3 activation (cleavage product) by Western blot in VSM cells; format: cell-based, rat
Description: FIGS. 19A and B depict how Caspase-3 is activated by antisense oligonucleotide to p21 but not early after radiation or Adriamycin, as described in Example III, infra. Confluent VSM cells were transfected with oligonucleotide in the concentration indicated, left in serum-containing media overnight, and exposed to (A) ionizing radiation (12 Gy) or (B) Adriamycin where indicated. 4 hours later, activation of caspase-3 was assessed by Western blotting. The arrowhead indicates the cleavage product of caspase-3 signifying its processing as an early step in apoptosis. Wortmannin (wort) is a positive control for apoptosis. […] The experiment shown is representative of two separate experiments.
Western blots: Cells were grown to confluence in 6 cm culture dishes and serum deprived. After transfection and or treatment with appropriate agonist, conditioned medium was removed and saved and the cells were washed with phosphate-buffered saline and lysed in lysis buffer. Both supernatant and cell lysate were normalized to the lysate protein concentrations and Western blotted as described (Weiss R H, et al. Am J Physiol 274:C1521-C1529, 1998).
In order to determine whether the potentiation of ionizing radiation and Adriamycin induced DNA synthesis inhibition by p21 antisense oligonucleotides is accompanied by apoptosis, caspase-3 activation in response to ionizing radiation was examined. Caspase-3 is an effector caspase whose activation (leading to apoptosis) results in a 20 kD cleavage product which can be assessed by Western blotting (McCarthy N J, Evan G I. Curr Top Dev Biol 36:259-278, 1998). This process is an early event in a cascade of reactions which ultimately leads to apoptosis, as is evident by the fact that inactivation of caspase-3 dramatically reduces apoptosis in several cell lines (Woo M, et al. Genes Dev 12:806-819, 1998).
VSM cells were transfected with antisense or control oligonucleotides overnight and then stimulated with ionizing radiation.

[3] = system: VSM cells; experiment: Apoptosis by Hoechst 33258 staining in VSM cells; format: cell-based, rat; conditions: 24 hours after transfection
Description: FIG. 20A-D show how the antisense oligonucleotide to p21 induces VSM cell apoptosis, as described in Example III, infra. VSM cells were grown on glass cover slips and transfected with (A,B) random sequence control oligonucleotide to p21 or (C,D) antisense oligonucleotide. 24 hours later, the cells were fixed and stained in situ with Hoechst 33258. Representative microscopic fields were photographed under (A,C) visual or (B,D) UV light at 40×.
Apoptosis assays: Cells were grown on collagen-coated coverslips, and transfected as stated above. 16-24 hours after transfection, cells were exposed to 12 Gy dose of γ-irradiation or 0.5 μM wortmannin. 24 hours later, cells were fixed in 3.7% formaldehyde (diluted in PBS) for 10 minutes. The cells were rinsed with cold PBS and permeabilized using 0.1% Triton X-100 (diluted in deionized water) for 5 minutes. Rinsed again with PBS, the cells on the coverslips were submerged in Hoechst Staining solution (3.0 μl in 37.5 ml deionized water) for 5 minutes. Cells were given a final three rinses with cold PBS before being mounted in polyvinyl alcohol mounting medium. Cell nuclei were visualized using a ZEISS WL Microscope and photographed under 40×.
As another measure of apoptosis, transfected cells fixed and stained with Hoechst 33258 were examined.

[4] = system: Met-1 cells; experiment: Growth of Met-1 cells in culture; format: cell-based, mouse; conditions: transfection
[5] = system: bovine VSM cells; experiment: PDGF-BB-stimulated DNA synthesis in bovine VSM cells; format: cell-based; conditions: bovine VSM cell line, various concentrations
From the text: Cell culture, DNA synthesis, and proliferation assays: Cultures of both A10 and A7r5 rat aortic VSM cells were obtained from American Type Culture Collection (Rockville Md.). Bovine aortic smooth muscle cells were supplied by Martha O'Donnell (O'Donnell and Owen, 1986 Proc Natl. Acad. Sci.US.A., 83, p. 6132-6136). All of the cell lines were maintained as described (Weiss et al., 1998 Am. J. Physiol., 274, p. C1521-C1529) and were used between passages 15 and 25. The cells were growth-arrested by placing them in serum-free quiescence medium, exposed to growth factors as indicated, and [^3H]thymidine incorporation assessed as previously described (Weiss and Nuccitelli, 1992a J. Biol. Chem., 267, p. 5608-5613). Cell proliferation was assessed by counting of adherent cells on 4 representative fields under 100× magnification in each of 3 wells per experimental condition.
Antisense techniques were employed to examine the dependence of G1-phase progression on p21^Waf1/Cip1 in the VSM cell lines (Crooke, 1993 Antisense research and applications. Boca Raton, CRC.). […] DNA synthesis was assessed by [^3H]-thymidine incorporation and is expressed as mean ± s.e.m. of three wells per data point. […] After 18 hours of PDGF incubation, the cells were counted by examining representative fields at 100× magnification. The average number of cells in 4 random fields in each well was determined.

Substance	nuclear morphology [1]	caspase-3 activation ([2]; Adriamycin experiment (FIG. 19b))	caspase-3 activation ([2]; alone or after ionizing radiation 12 Gy, 4 hours)	apoptotic changes (Hoechst 33258) [3]	growth of Met-1 cells in culture [4]	PDGF-stimulated DNA synthesis [5]
5′-ATC-CCC-AGC-CGG-TTC-TGA-CAT-3′ (antisense ATCCCCAGCCGGTTCTGACAT; listed as DNA, chemistry not fully specified) [antisense p21 ODN]	nuclear morphological changes consistent with apoptosis	–	–	–	–	–
5′-GACATCACCAGGATCGGACAT-3′	–	caspase-3 activation was observed	impressive increase	extensive apoptotic changes	did not affect growth	a similar effect
